Data as given in ChEMBL document CHEMBL3507680, “University of Dundee, Gates Library screen for HepG2 cell viability”.

Test: Human HepG2 cell viability assay in 384 well format
Type: toxicity, cell-based
Design: dose 125 nL, time 70.5 hour; concentration not given beside the values
Settings: HepG2 cells, read-out: Inhibition
`O=c1[nH]c(N2CCOCC2)nc2c1CN(Cc1cccnc1)CC2` showed a cytotoxicity at 70.5 h of 0.495%. With `CN(Cc1nnc(C2CC2)n1C)C1CCN(CCc2ccncc2)C1` (stereo not given) the cytotoxicity at 70.5 h was -6%. For `Cc1noc(C(C)N2CCN(CCC(=O)N3CCCCC3)CC2)n1` (stereo not given), the cytotoxicity at 70.5 h was -8.82%. With `CCNC(=O)N1CCC(NC(=O)NCCc2ccc(C)cc2C)C1` (stereo not given) the cytotoxicity at 70.5 h was -3.65%. Work on `CCn1ncc(C(=O)NCCc2nc(-c3cccnc3)n[nH]2)c1C` yielded a cytotoxicity at 70.5 h of -3.1%. Work on `CCc1nc(C(=O)N2CCCC2)nn1-c1c(Cl)cccc1Cl` yielded a cytotoxicity at 70.5 h of -2.51%. `CC(C)c1nnc(CNCC2CCCN2c2cccnn2)o1` (stereo not given) gave a cytotoxicity at 70.5 h of -6.87%. Work on `Cc1cc(CC(=O)N(CC2CN(C)CCO2)c2nccs2)no1` (stereo not given) yielded a cytotoxicity at 70.5 h of -10.3%. In the case of `O=C(c1ccc(F)cc1)N1CCN2C[C@H](OCc3ccccn3)C[C@H]2C1`, the cytotoxicity at 70.5 h was -6.75%. `Cc1ccc2c(c1)c(CNC(C)Cn1nc(C)cc1C)nn2C` (stereo not given) showed a cytotoxicity at 70.5 h of 2.8%. `O=C(O)c1c(-c2ccncc2)ncc2c1CCN(CC1CCOC1)C2` (stereo not given) showed a cytotoxicity at 70.5 h of -4.36%. `CCn1c(N)nc2cc(C(=O)N3CC(c4ccccn4)C3)cnc21` gave a cytotoxicity at 70.5 h of -5.92%. For `Cn1cc(CN2C[C@@H]3COC[C@]3(C(=O)NCCc3ccccc3)C2)cn1`, the cytotoxicity at 70.5 h was -8.15%. With `N#Cc1cccnc1NCc1cccnc1N1CCCCC1` the cytotoxicity at 70.5 h was 4.49%. In the case of `Cc1ccc(N2C(=O)N[C@@H]3CCN(C(=O)C4CCCC4)[C@@H]3C2=O)cc1`, the cytotoxicity at 70.5 h was -13.1%. For `CC[C@H](C)Nc1ncc(-c2cccc(NC(=O)CNC)c2)cn1`, the cytotoxicity at 70.5 h was -0.898%. `O=C(N1CCOCC1)N1CCc2[nH]nc(COc3cccc(Cl)c3)c2C1` gave a cytotoxicity at 70.5 h of -2.78%. `COC(C)(CNS(=O)(=O)c1cn(C)cn1)c1ccccc1F` (stereo not given) gave a cytotoxicity at 70.5 h of 9.94%. With `Cc1cc(C)n(CCCC(=O)N2CCc3ncc(Cl)cc3C2)n1` the cytotoxicity at 70.5 h was 30.1%. Compound `CNc1nc(C(=O)N2CCN(c3cc(C)nc(C)c3)CC2)cs1` has a cytotoxicity at 70.5 h of -9.69%. In the case of `C1CCCN(c2nc(C3CC3)ns2)CC1`, the cytotoxicity at 70.5 h was 15.3%. `CN(CC(=O)N(C)C(c1ccc(Cl)cc1)c1cccnc1)C1CC1` (stereo not given) showed a cytotoxicity at 70.5 h of -5.57%. `CCS(=O)(=O)N1CCC2(CC1)CC[C@@]1(C(=O)N(C)C)CN(C)C[C@@H]21` gave a cytotoxicity at 70.5 h of -15.2%. `Cc1nn(C)c(C)c1-c1ccc(=O)n(C(C)C(=O)NC2CCCCC2)n1` (stereo not given) gave a cytotoxicity at 70.5 h of -17.2%. `Cc1cnn(CC2CCCN2CCc2nc3ccccc3c(=O)[nH]2)c1` (stereo not given) gave a cytotoxicity at 70.5 h of 0.164%. Work on `NC(=O)CCNC(=O)NCC1(c2ccccc2Cl)CCC1` yielded a cytotoxicity at 70.5 h of -2.77%. With `CN1CCCC[C@@H]2[C@H]1[C@@H](c1ccccc1)CCN2C(=O)c1ccncc1` the cytotoxicity at 70.5 h was -5.64%. In the case of `COc1cc(OC)cc(C2(O)CCN(Cc3ncc(C)o3)CC2)c1`, the cytotoxicity at 70.5 h was 18.5%. Work on `Cn1ccc(C(=O)NC2CCC23CCN(C(=O)c2ccncc2)CC3)c1` (stereo not given) yielded a cytotoxicity at 70.5 h of -6.03%. With `CCN(Cc1c(C)nn(CC)c1C)S(=O)(=O)c1cn(C)nc1C` the cytotoxicity at 70.5 h was -2.98%. In the case of `CN(c1ccncn1)C1CC2(CCN(C(=O)c3cccn3C)C2)C1` (stereo not given), the cytotoxicity at 70.5 h was -0.487%. For `COc1cc(CNCCc2cnn(C)c2)cc2c1OCCO2`, the cytotoxicity at 70.5 h was -12.1%. `c1cnc(N2CCCC3(CCN(CC4CCC4)C3)C2)nc1` (stereo not given) gave a cytotoxicity at 70.5 h of -8.21%. Work on `CCc1ccc(S(=O)(=O)Nc2ccncc2)s1` yielded a cytotoxicity at 70.5 h of -5.81%. Work on `Cc1ccc(C(=O)N2CCC(Oc3ccc(C)c(C)c3)CC2)c(=O)[nH]1` yielded a cytotoxicity at 70.5 h of -2.32%. Work on `CN(C)C(=O)CN1C(=O)CCC12CCN(Cc1cccn1C)CC2` yielded a cytotoxicity at 70.5 h of 0.746%. `CC(c1ccccc1)N(C)CC(=O)NCCC#N` (stereo not given) showed a cytotoxicity at 70.5 h of -11.2%. Work on `Cc1ccc(N2CCCC(N3CCC(N(C)C)CC3)C2=O)cc1` (stereo not given) yielded a cytotoxicity at 70.5 h of 13.2%. In the case of `COc1ccc(OCc2cc(C(=O)N3CCC(O)CC3)n[nH]2)c(Cl)c1`, the cytotoxicity at 70.5 h was -5.72%. Work on `CCn1cc(NC(=O)NCC(c2cccs2)N(C)C)cn1` (stereo not given) yielded a cytotoxicity at 70.5 h of -4.7%. With `CC(C)c1ncc2c(n1)CN(Cc1nc(-c3ccco3)no1)CC2` the cytotoxicity at 70.5 h was -8.2%. Work on `Cn1nnc2c1CCN(S(C)(=O)=O)C2COCc1ccccc1` (stereo not given) yielded a cytotoxicity at 70.5 h of 13.6%. Compound `COc1cc(CO)ccc1OCc1nc(C(C)C)no1` has a cytotoxicity at 70.5 h of -3.56%. With `COc1cccc(CCn2ccnc2-c2cn(C3CCNCC3)nn2)c1` the cytotoxicity at 70.5 h was 28.6%. In the case of `Cc1ccc(CN2CCc3onc(C(=O)NCCN(C)C)c3C2)o1`, the cytotoxicity at 70.5 h was -8.28%. `CCCN(C(=O)COCC)c1cccc(C)c1` gave a cytotoxicity at 70.5 h of -4.58%. Compound `CNc1cc(C2CCCN(Cc3ccccc3OCC(=O)O)C2)ccn1` (stereo not given) has a cytotoxicity at 70.5 h of -8.72%. For `CS(=O)(=O)N1CCC2(COCc3cnc(-c4ccccc4)nc32)C1` (stereo not given), the cytotoxicity at 70.5 h was -10.2%. `O=C(O)c1ccc(C2CCCN(C(=O)c3ccc[nH]3)C2)cc1` (stereo not given) gave a cytotoxicity at 70.5 h of -6.26%. `Cc1nc2ccccc2nc1CN(C)CC1CCCN1c1cccnn1` (stereo not given) gave a cytotoxicity at 70.5 h of 3.52%. `CCn1ccnc1CN(C)c1cc(N(C)C)ncn1` gave a cytotoxicity at 70.5 h of 0.0154%. `O=C(Cn1cccnc1=O)NC(Cc1ccsc1)c1nccs1` (stereo not given) gave a cytotoxicity at 70.5 h of 17.6%. Work on `CN(C)CC1CN(Cc2coc(-c3ccccc3)n2)CCO1` (stereo not given) yielded a cytotoxicity at 70.5 h of -5.29%. Compound `O=C1N[C@H]2OCCC[C@H]2[C@H](c2ccc(C(=O)O)cc2)N1` has a cytotoxicity at 70.5 h of 12.6%. For `O=C(C1CCC1)N1CC[C@]2(O)CCN(Cc3ncccn3)C[C@@H]2C1`, the cytotoxicity at 70.5 h was -9.87%.
